In ChEMBL document CHEMBL5052828, “Therapeutic agents for treating and preventing autoimmune diseases and cancer and a screening method” (2020):
pIC50: −log10 of the molar value. The source made the active and inactive calls. No cut-off for these calls is given here.

Key:
MDA-MB-231 [1] = assay: Antiproliferative activity against human MDA-MB-231 cells after 4 hrs by CCK-8 assay; format: functional, cell-based; conditions: MDA-MB-231, 4 h
HEK293T [2] = assay: Inhibition of Arid5a in human HEK293T cells at 40 uM assessed as inhibition of stabilization of IL-6 on 3'UTR measured by luciferase assay; format: cell-based
Mus musculus [3] = assay: Protection against imiquimod-induced psoriasis model of BALB/c mouse assessed as reduction in IL-6 mRNA expression at 1 mg treated topically; format: functional, organism-based
LNCaP [4] = assay: Antiproliferative activity against human LNCaP cells at 25 uM assessed as suppression of cell viability after 4 hrs by CCK-8 assay; format: functional
Mus musculus [5] = assay: Protection against imiquimod-induced psoriasis model of BALB/c mouse assessed as reduction in clinical score at 1 mg treated topically; format: functional, organism-based
LNCaP [6] = assay: Antiproliferative activity against human LNCaP cells after 4 hrs by CCK-8 assay; format: functional, cell-based
Mus musculus [7] = assay: Antiinflammatory activity in C57BL/6 mouse model of collagen-induced arthritis assessed as reduction in serum IL-6 level at 0.25 mg, ip; format: functional, organism-based
A549 [8] = assay: Antiproliferative activity against human A549 cells after 4 hrs by CCK-8 assay; format: functional, cell-based; conditions: A549, 4 h
MDA-MB-231 [9] = assay: Antiproliferative activity against human MDA-MB-231 cells at 20 uM assessed as suppression of cell viability after 4 hrs by CCK-8 assay; format: functional
A549 [10] = assay: Antiproliferative activity against human A549 cells at 20 uM assessed as suppression of cell viability after 4 hrs by CCK-8 assay; format: functional
Mus musculus [11] = assay: Antiinflammatory activity in C57BL/6 mouse model of collagen-induced arthritis assessed as reduction in frequency of CD4+ IL-17+ cells at 0.25 mg, ip; format: functional, organism-based
Mus musculus [12] = assay: Protection against imiquimod-induced psoriasis model of BALB/c mouse assessed as reduction in IL-17a mRNA expression at 1 mg treated topically; format: functional, organism-based
Mus musculus [13] = assay: Antiinflammatory activity in C57BL/6 mouse model of collagen-induced arthritis assessed as reduction in clinical score at 0.25 mg, ip; format: functional, organism-based
HEK293T [14] = assay: Inhibition of Arid5a F56 pocket X mutant in human HEK293T cells at 40 uM assessed as inhibition of stabilization of STAT3 on 3'UTR measured by luciferase assay; format: cell-based
Macrophage [15] = assay: Antiinflammatory activity in LPS-stimulated mouse peritoneal macrophages at 40 uM assessed as effect on TNF-alpha level measured by ELISA; format: functional, cell-based
HEK293T [16] = assay: Inhibition of Arid5a L84 pocket X mutant in human HEK293T cells at 40 uM assessed as inhibition of stabilization of IL-6 on 3'UTR measured by luciferase assay; format: cell-based
HEK293T [17] = assay: Inhibition of Arid5a F56 pocket X mutant in human HEK293T cells at 40 uM assessed as inhibition of stabilization of IL-6 on 3'UTR measured by luciferase assay; format: cell-based
HEK293T [18] = assay: Inhibition of Arid5a Y137 pocket X mutant in human HEK293T cells at 40 uM assessed as inhibition of stabilization of IL-6 on 3'UTR measured by luciferase assay; format: cell-based
HEK293T [19] = assay: Inhibition of Arid5a in human HEK293T cells at 10 to 60 uM assessed as inhibition of stabilization of STAT3 on 3'UTR measured by luciferase assay; format: cell-based; conditions: dose 10-60 µM
HEK293T [20] = assay: Inhibition of Arid5a in human HEK293T cells at 10 to 60 uM assessed as inhibition of stabilization of OX40 on 3'UTR measured by luciferase assay; format: cell-based; conditions: dose 10-60 µM
Mus musculus [21] = assay: Immunosuppressive activity in MOG (35 to 55 residues)/pertussis toxin-induced experimental autoimmune encephalomyelitis female C57BL/6 mouse model assessed as reduction in serum IL-6 level at 0.5 mg, ip; format: functional, organism-based
Homo sapiens = species on record: Homo sapiens; assay: Inhibition of human Arid5a binding to (ADE) -like stem loop in the OX40 3'UTR measured by RNA-protein binding assay; conditions: dose 0.5 mg
Mus musculus [22] = assay: Immunosuppressive activity in MOG (35 to 55 residues)/pertussis toxin-induced experimental autoimmune encephalomyelitis female C57BL/6 mouse model assessed as reduction in clinical scores at 0.5 mg, ip; format: functional, organism-based
Macrophage [23] = assay: Antiinflammatory activity in LPS-stimulated mouse peritoneal macrophages at 40 uM assessed as decrease in frequency of CD4 + OX40 + T cells in polarized Th17 cells measured by flow cytometry analysis; format: functional, cell-based
HEK293T [24] = assay: Inhibition of Arid5a Y137 pocket X mutant in human HEK293T cells at 40 uM assessed as inhibition of stabilization of STAT3 on 3'UTR measured by luciferase assay; format: cell-based
Mus musculus [25] = assay: Immunosuppressive activity in MOG (35 to 55 residues)/pertussis toxin-induced experimental autoimmune encephalomyelitis female C57BL/6 mouse model assessed as reduction in OX40 mRNA expression in CD4 + T cells at 0.5 mg, ip; format: functional, organism-based; conditions: T-cell
Mus musculus [26] = assay: Immunosuppressive activity in MOG (35 to 55 residues)/pertussis toxin-induced experimental autoimmune encephalomyelitis female C57BL/6 mouse model assessed as reduction in serum TNF-alpha level at 0.5 mg, ip; format: functional, organism-based
HEK293T [27] = assay: Inhibition of Arid5a V34 pocket X mutant in human HEK293T cells at 40 uM assessed as inhibition of stabilization of IL-6 on 3'UTR measured by luciferase assay; format: cell-based
Mus musculus [28] = assay: Immunosuppressive activity in MOG (35 to 55 residues)/pertussis toxin-induced experimental autoimmune encephalomyelitis female C57BL/6 mouse model assessed as reduction in IL-17 level in encephalitogenic CD4 + T cells at 0.5 mg, ip; format: functional, organism-based; conditions: T-cell
HEK293T [29] = assay: Inhibition of Arid5a L84 pocket X mutant in human HEK293T cells at 40 uM assessed as inhibition of stabilization of OX40 on 3'UTR measured by luciferase assay; format: cell-based
HEK293T [30] = assay: Inhibition of Arid5a in human HEK293T cells at 10 to 60 uM assessed as inhibition of stabilization of IL-6 on 3'UTR measured by luciferase assay; format: cell-based; conditions: dose 10-60 µM
Macrophage [31] = assay: Antiinflammatory activity in LPS-stimulated mouse peritoneal macrophages at 40 uM assessed as decrease in IL-17 level measured by ELISA; format: functional, cell-based
Macrophage [32] = assay: Antiinflammatory activity in LPS-stimulated mouse peritoneal macrophages at 40 uM assessed as decrease in IL-6 level measured by ELISA; format: functional, cell-based
HEK293T [33] = assay: Inhibition of Arid5a V34 pocket X mutant in human HEK293T cells at 40 uM assessed as inhibition of stabilization of OX40 on 3'UTR measured by luciferase assay; format: cell-based
HEK293T [34] = assay: Inhibition of Arid5a V34 pocket X mutant in human HEK293T cells at 40 uM assessed as inhibition of stabilization of STAT3 on 3'UTR measured by luciferase assay; format: cell-based
HEK293T [35] = assay: Inhibition of Arid5a L84 pocket X mutant in human HEK293T cells at 40 uM assessed as inhibition of stabilization of STAT3 on 3'UTR measured by luciferase assay; format: cell-based
Mus musculus [36] = assay: Immunosuppressive activity in MOG (35 to 55 residues)/pertussis toxin-induced experimental autoimmune encephalomyelitis female C57BL/6 mouse model assessed as reduction in frequency of CD4 + OX40 + T cells at 0.5 mg, ip; format: functional, organism-based; conditions: T-cell
HEK293T [37] = assay: Inhibition of Arid5a Y137 pocket X mutant in human HEK293T cells at 40 uM assessed as inhibition of stabilization of OX40 on 3'UTR measured by luciferase assay; format: cell-based
HEK293T [38] = assay: Inhibition of Arid5a F56 pocket X mutant in human HEK293T cells at 40 uM assessed as inhibition of stabilization of OX40 on 3'UTR measured by luciferase assay; format: cell-based
Macrophage [39] = assay: Antiinflammatory activity in LPS-stimulated mouse peritoneal macrophages at 40 uM assessed as decrease STAT3 mRNA expression in Th17 cells; format: functional, cell-based

## CC(=O)CSc1nnc(-c2cccnc2)o1
MDA-MB-231 [1]
  pIC50: 4.56
HEK293T [2]
  inhibition: Active
Mus musculus [3]
  Activity: Active
LNCaP [4]
  Activity: 61%
Mus musculus [5]
  Activity: Active
LNCaP [6]
  pIC50: 4.46
Mus musculus [7]
  Activity: Active
A549 [8]
  pIC50: 4.55
MDA-MB-231 [9]
  Activity: 64%
A549 [10]
  Activity: 59%
Mus musculus [11]
  Activity: Active
Mus musculus [12]
  Activity: Active
Mus musculus [13]
  Activity: Active

## O=C(CSc1nnc(-c2ccncc2)o1)c1ccccc1
HEK293T [14]
  inhibition: inactive
Macrophage [15]
  Activity: inactive
HEK293T [16]
  inhibition: inactive
HEK293T [17]
  inhibition: inactive
MDA-MB-231 [1]
  pIC50: 4.56
HEK293T [2]
  inhibition: Active
HEK293T [18]
  inhibition: inactive
Mus musculus [3]
  Activity: Active
LNCaP [4]
  Activity: 61%
Mus musculus [5]
  Activity: Active
HEK293T [19]
  inhibition: Active
HEK293T [20]
  inhibition: Active
Mus musculus [21]
  Activity: Active
Homo sapiens
  inhibition: Active
Mus musculus [22]
  Activity: Active
LNCaP [6]
  pIC50: 4.46
Macrophage [23]
  Activity: Active
HEK293T [24]
  inhibition: inactive
Mus musculus [7]
  Activity: Active
Mus musculus [25]
  Activity: Active
A549 [8]
  pIC50: 4.55
Mus musculus [26]
  Activity: Active
HEK293T [27]
  inhibition: inactive
Mus musculus [28]
  Activity: Active
MDA-MB-231 [9]
  Activity: 64%
A549 [10]
  Activity: 59%
HEK293T [29]
  inhibition: inactive
HEK293T [30]
  inhibition: Active
Macrophage [31]
  Activity: Active
Macrophage [32]
  Activity: Active
HEK293T [33]
  inhibition: inactive
Mus musculus [11]
  Activity: Active
HEK293T [34]
  inhibition: inactive
Mus musculus [12]
  Activity: Active
HEK293T [35]
  inhibition: inactive
Mus musculus [36]
  Activity: Active
Mus musculus [13]
  Activity: Active
HEK293T [37]
  inhibition: inactive
HEK293T [38]
  inhibition: inactive
Macrophage [39]
  Activity: Active

## Cc1nnc(NCC(=O)c2ccccc2)s1
MDA-MB-231 [1]
  pIC50: 4.56
HEK293T [2]
  inhibition: Active
Mus musculus [3]
  Activity: Active
LNCaP [4]
  Activity: 61%
Mus musculus [5]
  Activity: Active
LNCaP [6]
  pIC50: 4.46
Mus musculus [7]
  Activity: Active
A549 [8]
  pIC50: 4.55
MDA-MB-231 [9]
  Activity: 64%
A549 [10]
  Activity: 59%
Mus musculus [11]
  Activity: Active
Mus musculus [12]
  Activity: Active
Mus musculus [13]
  Activity: Active

## Cc1nnc(SCC(=O)c2ccccc2)o1
MDA-MB-231 [1]
  pIC50: 4.56
HEK293T [2]
  inhibition: Active
Mus musculus [3]
  Activity: Active
LNCaP [4]
  Activity: 61%
Mus musculus [5]
  Activity: Active
LNCaP [6]
  pIC50: 4.46
Mus musculus [7]
  Activity: Active
A549 [8]
  pIC50: 4.55
MDA-MB-231 [9]
  Activity: 64%
A549 [10]
  Activity: 59%
Mus musculus [11]
  Activity: Active
Mus musculus [12]
  Activity: Active
Mus musculus [13]
  Activity: Active
